The values below come from patent US10442778B2, “N1-phenylpropane-1,2-diamine compounds with selective activity in voltage-gated sodium channels” (Merck Sharp & Dohme Corp., priority 2016, dated 2019).

For assay [1], the target named is T1, human Nav1.7 channels stably expressed in HEK 293 cells (Homo sapiens, UniProt Q15858).
T1 construct: expressed in transfected cells; host or cells: HEK 293
In words: IonWorks Quattro automated patch-clamp, inactivated state block of Nav1.7. Type of assay: cell-based. Conditions: double-pulse protocol, read-out: potency for the Nav 1.7 sodium ion channel (as measured by IonWorks). Here is the method: (§1) Compounds were tested on human Nav1.7 and Nav1.5 channels stably expressed in HEK 293 cells. […] Cells were sealed on a planar substrate using the Population Patch Plate (PPC) technology. Electrical access was obtained using both nystatin and amphotericin. A double-pulse protocol was used for the determination of IC50 values for inactivated state block. Nav1.7 and Nav1.5 expressing cells were voltage clamped at −100 mV and −110 mV, respectively. A depolarizing prepulse to −10 mV (Nav1.7) or −30 mV (Nav1.5) for 1000 ms followed by a 10 ms repolarization to −100 mV (Nav1.7) or −110 mV (Nav1.5) was given to generate fractional channel inactivation of ˜50%, followed by a 10 ms test pulse to −10 mV (Nav1.7) or −30 mV (Nav1.5) to measure peak current in control conditions and after compound addition. The following recording solutions were used (mM). External: 150 NaCl, 2 CaCl2, 5 KCl, 1 Mg Cl2, 10 HEPES, 12 Dextrose; internal: 120 CsF, 30 CsCl, 10 EGTA, 5 HEPES, 5 NaF, 2 MgCl2.
(§2) For all electrophysiology experiments, offline analysis was used to determine percent inhibition as a function of drug concentration. IC50 values were determined by fitting to the Hill equation.
In general terms: In patch-clamp work, channel activity is measured electrically.

Assay [2] deals with T2, human Nav1.5 channels stably expressed in HEK 293 cells (Homo sapiens, UniProt Q14524).
T2 construct: expressed in transfected cells; host or cells: HEK 293
T2 sequence (Q14524 whole entry): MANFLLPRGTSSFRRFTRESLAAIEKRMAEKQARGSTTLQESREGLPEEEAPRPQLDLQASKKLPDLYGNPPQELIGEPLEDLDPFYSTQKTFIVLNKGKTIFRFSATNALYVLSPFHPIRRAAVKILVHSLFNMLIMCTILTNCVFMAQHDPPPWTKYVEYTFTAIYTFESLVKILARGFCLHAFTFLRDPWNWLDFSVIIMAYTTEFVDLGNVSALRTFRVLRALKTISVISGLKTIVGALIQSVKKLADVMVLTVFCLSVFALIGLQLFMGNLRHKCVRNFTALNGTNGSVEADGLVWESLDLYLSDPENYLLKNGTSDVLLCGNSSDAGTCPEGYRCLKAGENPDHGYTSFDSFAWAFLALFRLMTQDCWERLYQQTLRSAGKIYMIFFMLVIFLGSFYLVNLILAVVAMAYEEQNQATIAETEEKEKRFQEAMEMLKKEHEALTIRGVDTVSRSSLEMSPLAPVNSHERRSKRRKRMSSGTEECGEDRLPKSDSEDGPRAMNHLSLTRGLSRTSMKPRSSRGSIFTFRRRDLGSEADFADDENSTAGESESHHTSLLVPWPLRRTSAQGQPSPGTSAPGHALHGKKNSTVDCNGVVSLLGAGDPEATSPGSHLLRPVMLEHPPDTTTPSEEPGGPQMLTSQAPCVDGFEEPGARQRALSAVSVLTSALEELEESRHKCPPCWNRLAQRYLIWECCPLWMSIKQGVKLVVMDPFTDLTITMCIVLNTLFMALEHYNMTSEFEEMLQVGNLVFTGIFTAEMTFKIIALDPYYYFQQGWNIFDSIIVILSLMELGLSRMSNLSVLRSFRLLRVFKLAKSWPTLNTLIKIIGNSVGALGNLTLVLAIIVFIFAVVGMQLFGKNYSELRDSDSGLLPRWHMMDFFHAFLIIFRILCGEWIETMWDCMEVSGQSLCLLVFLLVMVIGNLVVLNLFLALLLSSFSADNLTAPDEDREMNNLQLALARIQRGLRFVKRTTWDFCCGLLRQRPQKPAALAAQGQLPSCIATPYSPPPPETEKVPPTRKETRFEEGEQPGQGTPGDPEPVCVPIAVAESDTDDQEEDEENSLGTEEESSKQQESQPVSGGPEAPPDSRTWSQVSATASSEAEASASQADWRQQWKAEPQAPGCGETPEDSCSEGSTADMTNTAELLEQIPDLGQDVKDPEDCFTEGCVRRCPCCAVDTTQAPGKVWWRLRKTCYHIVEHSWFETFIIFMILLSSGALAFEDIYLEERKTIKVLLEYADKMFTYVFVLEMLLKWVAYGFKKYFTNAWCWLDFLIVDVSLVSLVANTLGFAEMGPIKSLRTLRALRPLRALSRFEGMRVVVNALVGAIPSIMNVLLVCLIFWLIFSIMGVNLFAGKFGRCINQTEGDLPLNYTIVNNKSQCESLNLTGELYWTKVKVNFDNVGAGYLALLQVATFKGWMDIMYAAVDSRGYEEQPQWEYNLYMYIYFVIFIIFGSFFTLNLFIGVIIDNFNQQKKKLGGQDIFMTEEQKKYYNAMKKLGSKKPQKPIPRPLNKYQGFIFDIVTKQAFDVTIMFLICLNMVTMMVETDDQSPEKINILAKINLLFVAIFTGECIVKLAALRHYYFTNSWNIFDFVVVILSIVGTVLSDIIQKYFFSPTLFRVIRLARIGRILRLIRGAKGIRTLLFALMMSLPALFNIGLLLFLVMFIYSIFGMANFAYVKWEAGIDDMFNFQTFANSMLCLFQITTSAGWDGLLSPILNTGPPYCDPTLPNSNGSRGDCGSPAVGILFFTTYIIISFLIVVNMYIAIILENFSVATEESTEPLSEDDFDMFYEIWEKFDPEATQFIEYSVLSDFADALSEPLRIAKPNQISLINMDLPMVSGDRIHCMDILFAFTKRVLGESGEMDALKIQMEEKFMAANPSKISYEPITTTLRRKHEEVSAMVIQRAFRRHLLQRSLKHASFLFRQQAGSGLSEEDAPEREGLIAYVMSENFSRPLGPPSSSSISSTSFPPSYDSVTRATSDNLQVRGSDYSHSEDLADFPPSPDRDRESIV
In words: IonWorks Quattro automated patch-clamp, inactivated state block of Nav1.5 (selectivity). It is filed as cell-based. To be noted: IonWorks measurement, both channels in HEK 293 cells. Here is the method:
as §1, §2

T1 sequence (Q15858 whole entry): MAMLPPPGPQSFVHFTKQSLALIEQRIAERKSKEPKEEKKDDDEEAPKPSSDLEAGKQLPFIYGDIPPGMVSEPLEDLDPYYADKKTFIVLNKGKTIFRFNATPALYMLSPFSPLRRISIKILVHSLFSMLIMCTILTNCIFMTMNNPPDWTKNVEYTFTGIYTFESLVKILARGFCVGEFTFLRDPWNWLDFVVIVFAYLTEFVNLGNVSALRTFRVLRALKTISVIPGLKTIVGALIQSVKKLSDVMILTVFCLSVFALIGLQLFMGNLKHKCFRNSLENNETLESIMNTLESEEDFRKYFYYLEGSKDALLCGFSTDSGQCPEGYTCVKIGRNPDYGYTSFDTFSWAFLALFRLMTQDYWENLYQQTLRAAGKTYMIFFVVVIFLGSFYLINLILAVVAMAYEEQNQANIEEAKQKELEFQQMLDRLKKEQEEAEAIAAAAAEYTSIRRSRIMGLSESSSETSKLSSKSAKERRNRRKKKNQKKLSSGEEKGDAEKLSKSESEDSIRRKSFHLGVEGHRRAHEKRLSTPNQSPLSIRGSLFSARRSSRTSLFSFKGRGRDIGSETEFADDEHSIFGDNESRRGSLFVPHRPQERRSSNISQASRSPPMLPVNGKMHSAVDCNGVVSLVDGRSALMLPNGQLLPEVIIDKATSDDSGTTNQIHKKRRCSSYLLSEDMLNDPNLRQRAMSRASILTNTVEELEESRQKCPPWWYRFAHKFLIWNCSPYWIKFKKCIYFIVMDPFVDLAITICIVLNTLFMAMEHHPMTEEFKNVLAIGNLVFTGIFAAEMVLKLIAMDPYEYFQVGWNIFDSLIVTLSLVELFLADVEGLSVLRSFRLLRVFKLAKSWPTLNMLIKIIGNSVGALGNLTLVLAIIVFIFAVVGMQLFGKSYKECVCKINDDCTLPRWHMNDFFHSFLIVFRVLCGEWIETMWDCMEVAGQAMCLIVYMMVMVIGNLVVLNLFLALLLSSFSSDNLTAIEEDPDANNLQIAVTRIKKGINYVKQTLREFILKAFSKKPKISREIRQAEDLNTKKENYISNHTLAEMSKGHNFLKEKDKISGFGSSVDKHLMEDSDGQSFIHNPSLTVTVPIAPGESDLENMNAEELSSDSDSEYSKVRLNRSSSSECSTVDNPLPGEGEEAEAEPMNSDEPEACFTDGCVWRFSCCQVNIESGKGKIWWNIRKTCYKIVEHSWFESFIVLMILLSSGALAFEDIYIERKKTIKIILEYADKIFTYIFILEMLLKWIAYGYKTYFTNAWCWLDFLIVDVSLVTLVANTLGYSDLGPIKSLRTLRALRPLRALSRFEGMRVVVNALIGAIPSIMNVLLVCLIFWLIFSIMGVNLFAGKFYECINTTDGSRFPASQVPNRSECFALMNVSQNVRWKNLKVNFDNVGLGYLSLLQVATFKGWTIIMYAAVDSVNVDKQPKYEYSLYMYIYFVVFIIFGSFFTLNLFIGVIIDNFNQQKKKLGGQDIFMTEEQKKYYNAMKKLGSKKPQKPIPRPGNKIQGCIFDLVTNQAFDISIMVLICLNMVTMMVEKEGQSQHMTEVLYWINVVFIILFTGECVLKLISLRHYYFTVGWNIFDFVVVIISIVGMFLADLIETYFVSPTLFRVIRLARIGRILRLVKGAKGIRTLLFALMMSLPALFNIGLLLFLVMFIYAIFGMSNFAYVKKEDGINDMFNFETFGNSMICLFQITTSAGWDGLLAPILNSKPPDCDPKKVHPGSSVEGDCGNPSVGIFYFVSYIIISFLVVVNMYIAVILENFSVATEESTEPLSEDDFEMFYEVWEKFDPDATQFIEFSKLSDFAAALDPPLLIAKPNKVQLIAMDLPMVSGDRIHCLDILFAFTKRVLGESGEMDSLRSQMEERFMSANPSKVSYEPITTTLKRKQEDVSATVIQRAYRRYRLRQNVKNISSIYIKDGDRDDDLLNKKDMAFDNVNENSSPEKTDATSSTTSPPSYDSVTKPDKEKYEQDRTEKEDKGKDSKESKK

On to `CN[C@H](CNc1cc(F)c(S(=O)(=O)Nc2nccs2)cc1Cl)CC1(C(F)(F)F)CC1` [Ex2-16, (S)-5-chloro-2-fluoro-4-((2-(methylamino)-3-(1-(trifluoromethyl)cyclopropyl)-propyl)amino)-N-(thiazol-2-yl)-benzenesulfonamide], for which the IC50 in assay [1] amounted to 120 nM. Also, the “ratio of Nav1.7 potency:Nav 1.5 potency” value in assay [2] is on record as > 275.
In the same order, the values of `CN[C@H](CNc1cc(F)c(S(=O)(=O)Nc2ncc(F)s2)cc1Cl)CC1CC1(F)F` (stereo partly drawn) [Ex2-22, 5-chloro-4-(((2S)-3-(2,2-difluorocyclopropyl)-2-(methylamino)propyl)amino)-2-fluoro-N-(5-fluorothiazol-2-yl)-benzenesulfonamide] are 1000 nM and > 23.
In the same order, the values of `CN[C@H](CNc1cc(F)c(S(=O)(=O)Nc2nccs2)cc1Cl)Cc1cccc(Cl)c1` [Ex1-19, (S)-5-chloro-4-((3-(3-chlorophenyl)-2-(methyl-amino)propyl)-amino)-2-fluoro-N-(thiazol-2-yl)-benzenesulfonamide] are 24 nM and > 1375.
The matching figures for `CN[C@@H](CCC1CC1)CNc1cc(F)c(S(=O)(=O)Nc2ncc(F)s2)cc1Cl` [Ex2-19, (S)-5-chloro-4-((4-cyclopropyl-2-(methylamino)butyl)amino)-2-fluoro-N-(5-fluorothiazol-2-yl)-benzenesulfonamide]: 800 nM and > 41.
For `CN[C@H](CNc1cc(F)c(S(=O)(=O)Nc2ncc(F)s2)cc1Cl)CC1(C)CC1` [Ex6-10, (S)-5-chloro-2-fluoro-N-(5-fluorothiazol-2-yl)-4-((2-(methylamino)-3-(1-methylcyclopropyl)propyl)amino)benzenesulfonamide], in assay [1], the IC50 worked out at 340 nM. Moreover, the “ratio of Nav1.7 potency:Nav 1.5 potency” value in assay [2] is listed as > 68.
In the same order, the values of `[2H]C([2H])([2H])N[C@H](CNc1cc(F)c(S(=O)(=O)Nc2ncc(F)s2)cc1Cl)CC(C)(C)C` [Ex3-14, (S)-5-chloro-4-((4,4-dimethyl-2-((methyl-d3)amino)pentyl)amino)-2-fluoro-N-(5-fluorothiazol-2-yl)-benzenesulfonamide] are 64 nM and > 429.
In the same order, the values of `CN[C@H](CNc1cc(F)c(S(=O)(=O)Nc2nccs2)cc1Cl)Cc1ccccc1Br` [Ex1-24, (S)-4-((3-(2-bromo-phenyl)-2-(methylamino)-propyl)amino)-5-chloro-2-fluoro-N-(thiazol-2-yl)-benzenesulfonamide] are 440 nM and > 75.
With `CN[C@@H](CCc1ccccc1)CNc1cc(F)c(S(=O)(=O)Nc2ncc(F)s2)cc1Cl` [Ex1-22, (S)-5-chloro-2-fluoro-N-(5-fluorothiazol-2-yl)-4-((2-(methylamino)-4-phenylbutyl)amino)-benzenesulfonamide], the IC50 in assay [1] was found to be 140 nM. Also, in assay [2], the “ratio of Nav1.7 potency:Nav 1.5 potency” value is > 236.
The matching figures for `CN[C@H](CNc1cc(F)c(S(=O)(=O)Nc2nccs2)cc1Cl)Cc1ccc(F)cc1` (single isomer, unassigned) [Ex1-12]: 61 nM and > 541.
`CN[C@@H](CCC1(C)CC1)CNc1cc(F)c(S(=O)(=O)Nc2ncc(F)s2)cc1Cl` [Ex2-23, (S)-5-chloro-2-fluoro-N-(5-fluorothiazol-2-yl)-4-((2-(methylamino)-4-(1-methylcyclopropyl)butyl)amino)benzenesulfonamide]: the IC50 in assay [1] worked out at 12 nM. For the same compound, in assay [2], the “ratio of Nav1.7 potency:Nav 1.5 potency” value is on record as > 2750.
In the same order, the values of `CN[C@H](CNc1cc(F)c(S(=O)(=O)Nc2ncc(F)s2)cc1Cl)CC1(CF)CC1` (single isomer, unassigned) [Ex5-4] are 2000 nM and > 14.
Consider `CCCC[C@@H](CNc1cc(F)c(S(=O)(=O)Nc2ncc(F)s2)cc1Cl)NC(C)C` [Ex7-6, (S)-5-chloro-2-fluoro-N-(5-fluorothiazol-2-yl)-4-((2-(isopropylamino)hexyl)amino) benzenesulfonamide], for which the IC50 in assay [1] is 30 nM. Further, the “ratio of Nav1.7 potency:Nav 1.5 potency” value in assay [2] is > 533.
The matching figures for `CN[C@@H](CCC(C)(C)C)CNc1cc(F)c(S(=O)(=O)Nc2ncc(F)s2)cc1Cl` [Ex2-15, (S)-5-chloro-4-((5,5-dimethyl-2-(methylamino)hexyl)amino)-2-fluoro-N-(5-fluorothiazol-2-yl)-benzenesulfonamide]: 670 nM and > 49.
Turning to `CN[C@H](CNc1cc(F)c(S(=O)(=O)Nc2nccs2)cc1Cl)Cc1cccc(F)c1` [Ex1-28, (S)-5-chloro-2-fluoro-4-((3-(3-fluorophenyl)-2-(methylamino)-propyl)-amino)-N-(thiazol-2-yl)-benzenesulfonamide], the IC50 in assay [1] was 32 nM. The “ratio of Nav1.7 potency:Nav 1.5 potency” value in assay [2] is > 1031.
In the same order, the values of `CCCC[C@@H](CNc1cc(F)c(S(=O)(=O)Nc2ncc(F)s2)cc1Cl)NCCC` [Ex7-5, (S)-5-chloro-2-fluoro-N-(5-fluorothiazol-2-yl)-4-((2-(propylainino)hexyl)amino) benzenesulfonamide] are 41 nM and > 805.
In the same order, the values of `CN[C@H](CNc1cc(F)c(S(=O)(=O)Nc2ncc(F)s2)cc1Cl)C[Si](C)(C)C` [Ex2-17, (R)-5-chloro-2-fluoro-N-(5-fluorothiazol-2-yl)-4-((2-(methylamino)-3-(trimethylsilyl)propyl)-amino)benzenesulfonamide] are 14 nM and > 1929.
